For orientation: IC50 means the concentration at which inhibition is half-maximal. High values mean lower potency, low ones higher potency.

The structures appear in SMILES notation. A value given as a limit tells only on which side of the number the result lay.

Here are results for 9 compounds from patent US9173882B2, “Polycyclic heteroaryl substituted triazoles useful as Axl inhibitors” (Rigel Pharmaceuticals, Inc., priority 2008, dated 2015).

For the test, the target named is T1, Axl (Homo sapiens, UniProt P30530).
T1 construct: endogenous in cells; host or cells: HeLa cells
T1 sequence (P30530 26-894): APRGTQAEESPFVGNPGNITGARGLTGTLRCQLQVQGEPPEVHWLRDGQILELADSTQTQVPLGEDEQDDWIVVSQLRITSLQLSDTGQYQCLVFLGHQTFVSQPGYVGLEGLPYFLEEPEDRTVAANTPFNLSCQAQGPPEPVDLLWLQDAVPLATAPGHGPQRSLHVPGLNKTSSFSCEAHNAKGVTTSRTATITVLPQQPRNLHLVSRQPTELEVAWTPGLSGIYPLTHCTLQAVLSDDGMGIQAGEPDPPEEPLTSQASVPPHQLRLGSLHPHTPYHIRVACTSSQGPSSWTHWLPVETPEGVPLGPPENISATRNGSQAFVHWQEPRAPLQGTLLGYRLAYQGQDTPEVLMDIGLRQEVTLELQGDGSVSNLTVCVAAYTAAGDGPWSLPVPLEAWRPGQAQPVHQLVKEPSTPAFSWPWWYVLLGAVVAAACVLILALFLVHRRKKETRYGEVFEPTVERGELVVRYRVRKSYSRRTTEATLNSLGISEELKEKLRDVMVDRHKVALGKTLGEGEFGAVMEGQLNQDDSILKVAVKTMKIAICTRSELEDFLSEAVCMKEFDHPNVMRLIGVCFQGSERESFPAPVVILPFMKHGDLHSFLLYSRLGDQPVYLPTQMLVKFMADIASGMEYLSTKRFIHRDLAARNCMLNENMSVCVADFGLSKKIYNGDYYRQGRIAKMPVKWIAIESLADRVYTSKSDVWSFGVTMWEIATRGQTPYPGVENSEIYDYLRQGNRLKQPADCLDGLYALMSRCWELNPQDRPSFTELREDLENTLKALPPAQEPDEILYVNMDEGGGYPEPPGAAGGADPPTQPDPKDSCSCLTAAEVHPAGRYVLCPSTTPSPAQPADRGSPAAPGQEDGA
Kind of test: Phospho-Akt in-cell Western assay. Type of test: cell-based. The settings on record: Hela cells, stimulated by Axl-antibody cross-linking, phospho-Akt chemiluminescence; Table 1, formula (Ia). A digest of the protocol: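 HeLa cells on poly-L-lysine, starved 24 h in 0.5% FCS with 500 ng/mL Axl/Fc, pre-treated with compound 1 hr at 37° C, then stimulated 5 min by cross-linked anti-Axl antibody clusters. Fixed cells probed for phospho-Akt by in-cell Western with HRP chemiluminescence, read within 10 min.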
Turning to `Nc1nc(Nc2ccc3c(c2)CC[C@@H](N)CC3)nn1-c1cc2c(nn1)-c1cccnc1CCC2` [Compound 46, 1-(6,7-dihydro-5H-pyrido[2′,3′:6,7]cyclohepta[1,2-c]pyridazin-3-yl)-N^3-((7S)-7-amino-6,7,8,9-tetrahydro-5H-benzo[7]annulene-2-yl)-1H-1,2,4-triazole-3,5-diamine], the IC50 is less than 1 µM.
Compound `CN(C)[C@H]1CCc2ccc(Nc3nc(N)n(-c4cc5c(nn4)-c4cccnc4CCC5)n3)cc2CC1` [Compound 47, 1-(6,7-dihydro-5H-pyrido[2′,3′:6,7]cyclohepta[1,2-c]pyridazin-3-yl)-N^3-((7S)-7-(dimethylamino)-6,7,8,9-tetrahydro-5H-benzo[7]annulene-2-yl)-1H-1,2,4-triazole-3,5-diamine] displayed an IC50 of 1 to 10 µM.
Compound `CCN(CC)[C@H]1CCc2ccc(Nc3nc(N)n(-c4cc5c(nn4)-c4cccnc4CCC5)n3)cc2CC1` [Compound 48, 1-(6,7-dihydro-5H-pyrido[2′,3′:6,7]cyclohepta[1,2-c]pyridazin-3-yl)-N^3-((7S)-7-(diethylamino)-6,7,8,9-tetrahydro-5H-benzo[7]annulene-2-yl)-1H-1,2,4-triazole-3,5-diamine] showed an IC50 of less than 1 µM.
The result for `CCCN(CCC)[C@H]1CCc2ccc(Nc3nc(N)n(-c4cc5c(nn4)-c4cccnc4CCC5)n3)cc2CC1` [Compound 49, 1-(6,7-dihydro-5H-pyrido[2′,3′:6,7]cyclohepta[1,2-c]pyridazin-3-yl)-N^3-((7S)-7-(dipropylamino)-6,7,8,9-tetrahydro-5H-benzo[7]annulene-2-yl)-1H-1,2,4-triazole-3,5-diamine] reads less than 1 µM.
For `Nc1nc(Nc2ccc3c(c2)CC[C@@H](N(CC2CC2)CC2CC2)CC3)nn1-c1cc2c(nn1)-c1cccnc1CCC2` [Compound 50, 1-(6,7-dihydro-5H-pyrido[2′,3′:6,7]cyclohepta[1,2-c]pyridazin-3-yl)-N^3-((7S)-7-(di(cyclopropylmethyl)amino)-6,7,8,9-tetrahydro-5H-benzo[7]annulene-2-yl)-1H-1,2,4-triazole-3,5-diamine], the IC50 is less than 1 µM.
As for `CC(C)CCN(CCC(C)C)[C@H]1CCc2ccc(Nc3nc(N)n(-c4cc5c(nn4)-c4cccnc4CCC5)n3)cc2CC1` [Compound 51, 1-(6,7-dihydro-5H-pyrido[2′,3′:6,7]cyclohepta[1,2-c]pyridazin-3-yl)-N^3-((7S)-7-(di(3-methylbutyl)amino)-6,7,8,9-tetrahydro-5H-benzo[7]annulene-2-yl)-1H-1,2,4-triazole-3,5-diamine], the IC50 fell in the range of 1 to 10 µM.
The result for `Nc1nc(Nc2ccc3c(c2)CC[C@@H](NC2CCC2)CC3)nn1-c1cc2c(nn1)-c1cccnc1CCC2` [Compound 52, 1-(6,7-dihydro-5H-pyrido[2′,3′:6,7]cyclohepta[1,2-c]pyridazin-3-yl)-N^3-((7S)-7-(cyclobutylamino)-6,7,8,9-tetrahydro-5H-benzo[7]annulene-2-yl)-1H-1,2,4-triazole-3,5-diamine] reads less than 1 µM; that for `Nc1nc(Nc2ccc3c(c2)CC[C@@H](NC2CCCCC2)CC3)nn1-c1cc2c(nn1)-c1cccnc1CCC2` [Compound 53, 1-(6,7-dihydro-5H-pyrido[2′,3′:6,7]cyclohepta[1,2-c]pyridazin-3-yl)-N^3-((7S)-7-(cyclohexylamino)-6,7,8,9-tetrahydro-5H-benzo[7]annulene-2-yl)-1H-1,2,4-triazole-3,5-diamine], less than 1 µM.
Then `CC(C)N[C@H]1CCc2ccc(Nc3nc(N)n(-c4cc5c(nn4)-c4cccnc4CCC5)n3)cc2CC1` [Compound 54, 1-(6,7-dihydro-5H-pyrido[2′,3′:6,7]cyclohepta[1,2-c]pyridazin-3-yl)-N^3-((7S)-7-((methylethyl)amino)-6,7,8,9-tetrahydro-5H-benzo[7]annulene-2-yl)-1H-1,2,4-triazole-3,5-diamine], with less than 1 µM.
